Assay results reported in ChEMBL document CHEMBL1201862, “PubChem BioAssay data set” (2004).
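How tested: cells in 96-well plates exposed to compound for 48 hours at five concentrations. Abbreviation: GI50, concentration required for 50% inhibition of growth.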 Active and inactive are the calls of the source. Cut-off read from the data, not from the text of the source: active = GI50 up to about 1.1 µM and inactive = higher.

How the values were obtained:
Assay in all cases: inhibition of tumour cell growth, NCI panel, 48 h
CCRF-CEM = test system: CCRF-CEM
UACC-62 = test system: UACC-62
786-0 = test system: 786-0
SF-295 = test system: SF-295
NCI-H460 = test system: NCI-H460
HCT-15 = test system: HCT-15
NCI-H522 = test system: NCI-H522
HT-29 = test system: HT-29
COLO 205 = test system: COLO 205
U-251 = test system: U-251
SF-539 = test system: SF-539
HL-60 = test system: HL-60
BT-549 = test system: BT-549
HOP-62 = test system: HOP-62
TK-10 = test system: TK-10
K562 = test system: K562
EKVX = test system: EKVX
MDA-MB-231 = test system: MDA-MB-231
MDA-MB-435 = test system: MDA-MB-435
SNB-78 = test system: SNB-78

Compound | GI50 (CCRF-CEM) | GI50 (UACC-62) | GI50 (786-0) | GI50 (SF-295) | GI50 (NCI-H460) | GI50 (HCT-15) | GI50 (NCI-H522) | GI50 (HT-29) | GI50 (COLO 205) | GI50 (U-251) | GI50 (SF-539) | GI50 (HL-60) | GI50 (BT-549) | GI50 (HOP-62) | GI50 (TK-10) | GI50 (K562) | GI50 (EKVX) | GI50 (MDA-MB-231) | GI50 (MDA-MB-435) | GI50 (SNB-78)
COc1ccc2c(c1)Cc1cc(/N=[N+](\[O-])c3ccc4c(c3)Cc3cc(OC)ccc3-4)ccc1-2 | 12 µM (inactive) | 24.5 µM (inactive) | 33.2 µM (inactive) | 67.3 µM (inactive) | 39.3 µM (inactive) | 95.7 µM | 4.78 µM (inactive) | 15.6 µM (inactive) | 15.3 µM (inactive) | 16.9 µM (inactive) | 10.2 µM (inactive) | 7.48 µM (inactive) | 76.7 µM (inactive) | 43.9 µM (inactive) | 64.3 µM (inactive) | 38.8 µM (inactive) | 11.3 µM (inactive) | 43 µM (inactive) | 27.1 µM (inactive) | 
Cn1c2ccccc2c(=O)c2c(O)cc3c(c21)CC(C1(C)CO1)O3 (stereo unspecified) | 0.056 µM (active) | 2.16 µM (inactive) | 1.71 µM (inactive) | 9.44 µM (inactive) | 3.29 µM (inactive) | 4.69 µM | 2.93 µM (inactive) | 4.41 µM (inactive) | 6.1 µM (inactive) | 3.16 µM (inactive) | 3.2 µM (inactive) | 0.0495 µM (active) | 1.67 µM (inactive) | 3.15 µM (inactive) | 11.4 µM (inactive) | 0.26 µM (active) | 3.08 µM (inactive) | 2.03 µM (inactive) | 1.64 µM (inactive) | 
O=[N+]([O-])c1nccn1CCCNCCCn1ccnc1[N+](=O)[O-] | > 100 µM (inactive) | > 100 µM (inactive) | > 100 µM (inactive) | > 100 µM (inactive) | > 100 µM (inactive) | > 100 µM | > 100 µM (inactive) | 85.9 µM (inactive) | > 100 µM (inactive) | > 100 µM (inactive) | > 100 µM (inactive) | > 100 µM (inactive) | > 100 µM (inactive) | > 100 µM (inactive) | > 100 µM (inactive) | > 100 µM (inactive) | > 100 µM (inactive) | > 100 µM (inactive) | > 100 µM (inactive) | 
CCOC(=O)[C@H]1Nc2ccc(O)cc2C2c3ccccc3CC21 (stereo partly specified) |  | 51.3 µM (inactive) | 77.8 µM (inactive) | > 10 µM (inactive) | > 100 µM (inactive) | 72.8 µM | 61.7 µM (inactive) | > 100 µM (inactive) | > 100 µM (inactive) | 88.7 µM (inactive) | > 100 µM (inactive) |  |  | > 100 µM (inactive) | > 100 µM (inactive) | 52.5 µM (inactive) | 42.3 µM (inactive) |  |  | > 100 µM (inactive)
NC1=NCC(c2ccccn2)C1c1ccc(F)cc1 (stereo unspecified) | > 100 µM (inactive) | > 100 µM (inactive) | > 100 µM (inactive) | > 100 µM (inactive) | > 100 µM (inactive) |  | > 100 µM (inactive) | > 100 µM (inactive) | > 100 µM (inactive) | > 100 µM (inactive) | > 100 µM (inactive) |  |  | > 100 µM (inactive) | > 100 µM (inactive) | > 100 µM (inactive) | > 100 µM (inactive) |  |  | > 100 µM (inactive)
N#CC1=C(c2ccccc2)OC2(N)OC(c3ccccc3)=C(C#N)C12C#N (stereo unspecified) | 56.1 µM (inactive) | > 100 µM (inactive) | > 100 µM (inactive) | > 100 µM (inactive) | > 100 µM (inactive) | > 100 µM |  | > 100 µM (inactive) | > 100 µM (inactive) | > 100 µM (inactive) | > 100 µM (inactive) |  |  | > 100 µM (inactive) | > 100 µM (inactive) | > 100 µM (inactive) | > 100 µM (inactive) |  |  | > 100 µM (inactive)
C=C(CC[C@@H](C)[C@H]1CC[C@H]2[C@@H]3C[C@@H](O)[C@H]4C[C@@H](O)CC[C@]4(CO)[C@H]3CC[C@]12C)C(C)C | 3.56 µM (inactive) | 8.15 µM (inactive) | 3.75 µM (inactive) | 9.12 µM (inactive) | 2.18 µM (inactive) | 2.83 µM | 5.24 µM (inactive) | 1.98 µM (inactive) | 7.71 µM (inactive) | 6.44 µM (inactive) | 9.75 µM (inactive) | 6.34 µM (inactive) | 8.09 µM (inactive) | 7.57 µM (inactive) | 2.37 µM (inactive) | 1.49 µM (inactive) | 2.1 µM (inactive) | 4.17 µM (inactive) | 7.45 µM (inactive) | 
COc1nc2c(c(O)c(C)c(=O)n2OC2OCC(OC(C)=O)C(OC(C)=O)C2OC(C)=O)c(=O)n1C (stereo unspecified) | > 100 µM (inactive) | > 100 µM (inactive) | > 100 µM (inactive) | > 100 µM (inactive) | > 100 µM (inactive) | > 100 µM | 91.8 µM (inactive) | > 100 µM (inactive) | > 100 µM (inactive) | > 100 µM (inactive) | 60.4 µM (inactive) |  |  | > 100 µM (inactive) | > 100 µM (inactive) | > 100 µM (inactive) | > 100 µM (inactive) |  |  | > 100 µM (inactive)
O=C(O)/C(Cl)=C(\Cl)Nc1cccc(C(F)(F)F)c1 | > 100 µM (inactive) | > 100 µM (inactive) | > 100 µM (inactive) | > 100 µM (inactive) | > 100 µM (inactive) | > 100 µM |  | > 100 µM (inactive) | > 100 µM (inactive) | > 100 µM (inactive) |  | 39.5 µM (inactive) |  | > 100 µM (inactive) | > 100 µM (inactive) | > 100 µM (inactive) | > 100 µM (inactive) |  |  | > 100 µM (inactive)
ClCCc1ccccc1CC1=NCCc2ccccc21 | 39.9 µM (inactive) | 28.6 µM (inactive) | 42.6 µM (inactive) | 39.3 µM (inactive) | 25.8 µM (inactive) | 33 µM | 16.7 µM (inactive) | 17.4 µM (inactive) | 24 µM (inactive) | 31.8 µM (inactive) | 38.8 µM (inactive) | 31.3 µM (inactive) | 30.3 µM (inactive) | 34.8 µM (inactive) | 41.7 µM (inactive) | 28.4 µM (inactive) | 22.1 µM (inactive) | 38.1 µM (inactive) | 28.8 µM (inactive) | 
c1ccc2c(c1)Sc1nccc3ccnc-2c13 | 56.9 µM (inactive) | 23.3 µM (inactive) | 80.4 µM (inactive) | 33.3 µM (inactive) | 5.57 µM (inactive) | > 10 µM | 21.9 µM (inactive) | 11.9 µM (inactive) | 48.3 µM (inactive) | 23.9 µM (inactive) | 47.6 µM (inactive) | 27.8 µM (inactive) | 77.1 µM (inactive) | 35.8 µM (inactive) | 12.4 µM (inactive) | 71.3 µM (inactive) | 10.6 µM (inactive) | > 100 µM (inactive) | 39.5 µM (inactive) | 
N#CCC1(c2ccc(Cl)cc2)NC(=O)c2ccccc21 (stereo unspecified) | > 100 µM (inactive) | > 100 µM (inactive) | > 100 µM (inactive) | > 100 µM (inactive) | > 100 µM (inactive) | > 100 µM | > 100 µM (inactive) | > 100 µM (inactive) | > 100 µM (inactive) | > 100 µM (inactive) | > 100 µM (inactive) | > 100 µM (inactive) | > 100 µM (inactive) | > 100 µM (inactive) | 96.2 µM (inactive) | > 100 µM (inactive) | > 100 µM (inactive) | > 100 µM (inactive) | > 100 µM (inactive) | 
C[C@@H]1OC(=O)N2CCCC(=C3SCCCS3)C12 (stereo partly specified) | 46.6 µM (inactive) | 56.1 µM (inactive) | > 100 µM (inactive) | 90.2 µM (inactive) | > 100 µM (inactive) | > 100 µM | 59.2 µM (inactive) | 70.1 µM (inactive) | > 100 µM (inactive) | > 100 µM (inactive) | > 100 µM (inactive) |  |  |  | > 100 µM (inactive) | 43.6 µM (inactive) | > 100 µM (inactive) |  |  | > 100 µM (inactive)
O=c1c(Cc2ccc(Cl)cc2)nnc2sc(-c3ccc(-c4ccc(F)c(Cl)c4)o3)nn12 | 45.7 µM (inactive) | 53.2 µM (inactive) | 71 µM (inactive) | 88.9 µM (inactive) | 55 µM (inactive) | 34.9 µM | 62.1 µM (inactive) | 50.5 µM (inactive) | 57.3 µM (inactive) | 99.5 µM (inactive) | > 100 µM (inactive) | 43.7 µM (inactive) | 78.2 µM (inactive) | > 100 µM (inactive) | > 100 µM (inactive) | 37.6 µM (inactive) | 24.5 µM (inactive) | > 100 µM (inactive) | 82 µM (inactive) | 
Cc1nc(N)sc1/N=N/c1ccccc1Br | 3.75 µM (inactive) | 28.6 µM (inactive) | 36.6 µM (inactive) | 44.9 µM (inactive) | 22.9 µM (inactive) | 33.7 µM | 14.2 µM (inactive) | 35.9 µM (inactive) | > 54.7 µM (inactive) | 31 µM (inactive) | > 44.1 µM (inactive) | > 42.5 µM (inactive) | 24.7 µM (inactive) | 39.3 µM (inactive) | 37.9 µM (inactive) | > 65.9 µM (inactive) | 18.3 µM (inactive) | 37.3 µM (inactive) | 24.3 µM (inactive) | 
Cc1cc(C)c2nccc(NCCCN(C)C)c2c1[N+](=O)[O-] | 37.2 µM (inactive) | 34.1 µM (inactive) | 36.2 µM (inactive) | 26.1 µM (inactive) | 26.8 µM (inactive) | 15 µM | 14.4 µM (inactive) | 18.7 µM (inactive) | 14.8 µM (inactive) | 52.5 µM (inactive) | 34.9 µM (inactive) | 25.9 µM (inactive) | 35.5 µM (inactive) | 47.9 µM (inactive) | 30.8 µM (inactive) | 31 µM (inactive) | 64 µM (inactive) | 51.1 µM (inactive) | 29.6 µM (inactive) | 
